Results: ChEMBL document CHEMBL1201862, “PubChem BioAssay data set” (2004)
Activity calls are given as the source filed them. Rule as the data show it, for most assays here: actives have a measured EC50 and inactives only a lower limit.

What was measured:
[1] = biological target: Voltage-dependent T-type calcium channel subunit alpha-1H (Homo sapiens, UniProt O95180); format: functional;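 also: channel activity triggered by adding a high calcium stimulation buffer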
[2] = biological target: T1, Caspase-6 (Homo sapiens, UniProt P55212); assay: human caspase-6 inhibitors, dose response, biochemical, VEID-R110 fluorescence, cherry-pick (AID 720632)
T1 sequence (P55212 whole entry): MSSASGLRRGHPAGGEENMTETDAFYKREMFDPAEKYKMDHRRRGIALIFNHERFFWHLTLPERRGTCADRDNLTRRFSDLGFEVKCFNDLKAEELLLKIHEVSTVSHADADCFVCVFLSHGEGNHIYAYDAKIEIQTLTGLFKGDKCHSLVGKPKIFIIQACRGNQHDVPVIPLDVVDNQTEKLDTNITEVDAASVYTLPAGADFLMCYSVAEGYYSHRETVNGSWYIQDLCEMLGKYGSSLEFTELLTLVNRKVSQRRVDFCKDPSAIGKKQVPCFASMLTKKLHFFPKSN

[3] = biological target: T2, High affinity choline transporter 1 (Homo sapiens, UniProt Q9GZV3); assay: CHT inhibitors, dose response, cell-based, 5-point CRC, membrane potential dye (AID 504840); format: functional
T2 sequence (Q9GZV3 whole entry): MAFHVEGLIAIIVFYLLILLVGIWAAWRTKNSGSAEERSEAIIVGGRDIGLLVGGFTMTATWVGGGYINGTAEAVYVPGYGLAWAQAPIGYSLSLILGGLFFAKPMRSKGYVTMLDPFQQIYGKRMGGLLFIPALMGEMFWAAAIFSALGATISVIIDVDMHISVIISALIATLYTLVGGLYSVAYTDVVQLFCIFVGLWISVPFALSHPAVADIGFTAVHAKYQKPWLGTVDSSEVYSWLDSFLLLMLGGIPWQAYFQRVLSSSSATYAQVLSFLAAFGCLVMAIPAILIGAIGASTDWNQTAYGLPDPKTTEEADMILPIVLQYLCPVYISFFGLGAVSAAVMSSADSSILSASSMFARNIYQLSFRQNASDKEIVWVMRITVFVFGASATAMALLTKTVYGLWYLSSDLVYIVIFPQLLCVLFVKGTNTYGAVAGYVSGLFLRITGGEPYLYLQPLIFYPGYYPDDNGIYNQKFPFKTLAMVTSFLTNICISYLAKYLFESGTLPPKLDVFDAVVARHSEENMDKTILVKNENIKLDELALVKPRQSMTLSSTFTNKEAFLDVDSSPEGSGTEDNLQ

[4] = test system: Streptococcus; assay: Group A Streptococcus viability loss, dose response, counter-screen for streptokinase expression inhibitor project, luminescence, BacTiterGlo (AID 1915); format: functional, organism-based;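 also: potency for reduction of bacterial viability or growth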
[5] = biological target: T3, Streptokinase A (Streptococcus pyogenes serotype M1, UniProt P10520); assay: S. pyogenes streptokinase expression inhibitors, potency, dose response, plasminogen activation absorbance, OD405 (AID 1914); format: functional, Streptococcus pyogenes M1 GAS;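 also: secreted streptokinase activity via plasminogen activation per viability signal from cell pellet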
T3 sequence (P10520 whole entry): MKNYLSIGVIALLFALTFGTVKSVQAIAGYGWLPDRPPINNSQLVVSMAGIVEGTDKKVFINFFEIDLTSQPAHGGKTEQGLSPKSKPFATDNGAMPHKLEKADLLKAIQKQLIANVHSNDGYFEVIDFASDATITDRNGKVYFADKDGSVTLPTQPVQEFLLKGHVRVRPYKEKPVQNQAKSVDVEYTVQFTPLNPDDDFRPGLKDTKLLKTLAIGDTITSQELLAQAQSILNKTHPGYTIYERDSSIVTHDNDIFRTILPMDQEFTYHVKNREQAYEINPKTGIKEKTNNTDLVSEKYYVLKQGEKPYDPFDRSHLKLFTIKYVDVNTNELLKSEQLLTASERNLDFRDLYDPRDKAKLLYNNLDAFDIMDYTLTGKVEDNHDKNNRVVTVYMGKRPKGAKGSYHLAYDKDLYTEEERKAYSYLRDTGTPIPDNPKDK

[6] = test system: Streptococcus sp. 'group A'; assay: growth inhibition of control SK(-) GAS strain, dose response, counter-screen for streptokinase expression inhibitor project, luminescence, kanamycin, BacTiterGlo, confirmation (AID 1900); format: functional, organism-based
[7] = Luminescence Cell-Based Dose Response HTS to Identify Activators of Luciferase Translation or Activity in H4 […] Cells. [Related pubchem assays: 1829 (Project Summary), 1814 (Primary HTS)]; format: functional
[8] = test system: H4; assay: Luminescence Cell-Based Dose Response HTS to Identify Activators of 5'UTR Stem-Loop Driven Prion Protein mRNA Translation in H4 Neuroglioblastoma Cells. [Related pubchem assays: 1829 (Project Summary), 1814 (Primary HTS)]; format: functional; details: Homo sapiens
[9] = Luminescence Cell-Based Dose Confirmation HTS to Identify Activators of 5'UTR Stem-Loop Driven Alpha-Synuclein mRNA Translation in H4 Neuroglioblastoma Cells. [Related pubchem assays: 1829 (Project Summary), 1814 (Primary HTS)]; format: functional
[10] = HepG2 cell cytotoxicity, dose response, cytotoxicity control, plate reader, cherry-pick, antagonist series (AID 743416); format: functional, cell-based
[11] = NIH-3T3 fibroblast cytotoxicity, dose response, cytotoxicity control, cell-based, fluorescence, Alamar Blue, secondary assay (AID 2327); format: functional;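 also: NIH-3T3 mouse fibroblasts cultured with fluconazole at 8 µg/mL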
[12] = C. albicans growth with fluconazole, confirmation, fluorescence, retest (AID 2467); format: functional, cell-based
[13] = control 3'UTR Renilla luciferase suppression, dose response, counter-screen for Shn3 inhibitor project, cell-based, Clone20-Shn3RL, cherry-picked (AID 624133); format: functional
[14] = HepG2 cell cytotoxicity, dose response, cytotoxicity control for Shn3 inhibitor project, CellTiter-Glo, cherry-picked (AID 624134); format: functional, cell-based
[15] = Shn3 3'UTR reporter inhibitors, dose response, cell-based, Clone20 osteoblasts, firefly luciferase, cherry-picked (AID 624132); format: functional;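 also: firefly luciferase luminescence from reporter carrying the Shn3 3'UTR in osteoblasts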
[16] = test system: BJ; assay: cytotoxicity toward BJ-TERT-LT-ST fibroblasts, dose response, cell-based, RAS-independent, luminescence (AID 1935); format: functional; details: Homo sapiens;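 also: BJ fibroblasts immortalized with TERT plus LT and ST oncogenes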
[17] = test system: BJ; assay: cytotoxicity toward BJ-TERT fibroblasts, dose response, cell-based, RAS-independent, luminescence (AID 1933); format: functional; details: Homo sapiens
[18] = test system: BJ; assay: cells; format: functional, cell-based; details: Homo sapiens
[19] = cytotoxicity toward DRD oncogenic fibroblasts, dose response, cell-based, non-viral oncogenic, luminescence (AID 1934); format: functional; details: Homo sapiens
[20] = HEp-2 cell cytotoxicity, dose response, cytotoxicity control for RSV inhibitor project, HTS (AID 2410); format: functional; details: human respiratory syncytial virus
[21] = cytotoxicity toward NIH3T3 fibroblasts, dose response, counter-screen, cell-based, ATP luminescence, mouse fibroblasts (AID 2010); format: functional;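 also: cells exposed to compound for about 90 hours before reading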
[22] = biological target: Fatty acid synthase (Homo sapiens, UniProt P49327); assay: FAS thioesterase domain inhibitors, dose response, biochemical, kinetic fluorescence intensity (AID 624326); format: functional;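 also: rate of fluorescence rise from hydrolysis of a fluorogenic O-methyl fluorescein ester substrate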
Fatty acid synthase, sequence (P49327 whole entry, the tested form may be a part): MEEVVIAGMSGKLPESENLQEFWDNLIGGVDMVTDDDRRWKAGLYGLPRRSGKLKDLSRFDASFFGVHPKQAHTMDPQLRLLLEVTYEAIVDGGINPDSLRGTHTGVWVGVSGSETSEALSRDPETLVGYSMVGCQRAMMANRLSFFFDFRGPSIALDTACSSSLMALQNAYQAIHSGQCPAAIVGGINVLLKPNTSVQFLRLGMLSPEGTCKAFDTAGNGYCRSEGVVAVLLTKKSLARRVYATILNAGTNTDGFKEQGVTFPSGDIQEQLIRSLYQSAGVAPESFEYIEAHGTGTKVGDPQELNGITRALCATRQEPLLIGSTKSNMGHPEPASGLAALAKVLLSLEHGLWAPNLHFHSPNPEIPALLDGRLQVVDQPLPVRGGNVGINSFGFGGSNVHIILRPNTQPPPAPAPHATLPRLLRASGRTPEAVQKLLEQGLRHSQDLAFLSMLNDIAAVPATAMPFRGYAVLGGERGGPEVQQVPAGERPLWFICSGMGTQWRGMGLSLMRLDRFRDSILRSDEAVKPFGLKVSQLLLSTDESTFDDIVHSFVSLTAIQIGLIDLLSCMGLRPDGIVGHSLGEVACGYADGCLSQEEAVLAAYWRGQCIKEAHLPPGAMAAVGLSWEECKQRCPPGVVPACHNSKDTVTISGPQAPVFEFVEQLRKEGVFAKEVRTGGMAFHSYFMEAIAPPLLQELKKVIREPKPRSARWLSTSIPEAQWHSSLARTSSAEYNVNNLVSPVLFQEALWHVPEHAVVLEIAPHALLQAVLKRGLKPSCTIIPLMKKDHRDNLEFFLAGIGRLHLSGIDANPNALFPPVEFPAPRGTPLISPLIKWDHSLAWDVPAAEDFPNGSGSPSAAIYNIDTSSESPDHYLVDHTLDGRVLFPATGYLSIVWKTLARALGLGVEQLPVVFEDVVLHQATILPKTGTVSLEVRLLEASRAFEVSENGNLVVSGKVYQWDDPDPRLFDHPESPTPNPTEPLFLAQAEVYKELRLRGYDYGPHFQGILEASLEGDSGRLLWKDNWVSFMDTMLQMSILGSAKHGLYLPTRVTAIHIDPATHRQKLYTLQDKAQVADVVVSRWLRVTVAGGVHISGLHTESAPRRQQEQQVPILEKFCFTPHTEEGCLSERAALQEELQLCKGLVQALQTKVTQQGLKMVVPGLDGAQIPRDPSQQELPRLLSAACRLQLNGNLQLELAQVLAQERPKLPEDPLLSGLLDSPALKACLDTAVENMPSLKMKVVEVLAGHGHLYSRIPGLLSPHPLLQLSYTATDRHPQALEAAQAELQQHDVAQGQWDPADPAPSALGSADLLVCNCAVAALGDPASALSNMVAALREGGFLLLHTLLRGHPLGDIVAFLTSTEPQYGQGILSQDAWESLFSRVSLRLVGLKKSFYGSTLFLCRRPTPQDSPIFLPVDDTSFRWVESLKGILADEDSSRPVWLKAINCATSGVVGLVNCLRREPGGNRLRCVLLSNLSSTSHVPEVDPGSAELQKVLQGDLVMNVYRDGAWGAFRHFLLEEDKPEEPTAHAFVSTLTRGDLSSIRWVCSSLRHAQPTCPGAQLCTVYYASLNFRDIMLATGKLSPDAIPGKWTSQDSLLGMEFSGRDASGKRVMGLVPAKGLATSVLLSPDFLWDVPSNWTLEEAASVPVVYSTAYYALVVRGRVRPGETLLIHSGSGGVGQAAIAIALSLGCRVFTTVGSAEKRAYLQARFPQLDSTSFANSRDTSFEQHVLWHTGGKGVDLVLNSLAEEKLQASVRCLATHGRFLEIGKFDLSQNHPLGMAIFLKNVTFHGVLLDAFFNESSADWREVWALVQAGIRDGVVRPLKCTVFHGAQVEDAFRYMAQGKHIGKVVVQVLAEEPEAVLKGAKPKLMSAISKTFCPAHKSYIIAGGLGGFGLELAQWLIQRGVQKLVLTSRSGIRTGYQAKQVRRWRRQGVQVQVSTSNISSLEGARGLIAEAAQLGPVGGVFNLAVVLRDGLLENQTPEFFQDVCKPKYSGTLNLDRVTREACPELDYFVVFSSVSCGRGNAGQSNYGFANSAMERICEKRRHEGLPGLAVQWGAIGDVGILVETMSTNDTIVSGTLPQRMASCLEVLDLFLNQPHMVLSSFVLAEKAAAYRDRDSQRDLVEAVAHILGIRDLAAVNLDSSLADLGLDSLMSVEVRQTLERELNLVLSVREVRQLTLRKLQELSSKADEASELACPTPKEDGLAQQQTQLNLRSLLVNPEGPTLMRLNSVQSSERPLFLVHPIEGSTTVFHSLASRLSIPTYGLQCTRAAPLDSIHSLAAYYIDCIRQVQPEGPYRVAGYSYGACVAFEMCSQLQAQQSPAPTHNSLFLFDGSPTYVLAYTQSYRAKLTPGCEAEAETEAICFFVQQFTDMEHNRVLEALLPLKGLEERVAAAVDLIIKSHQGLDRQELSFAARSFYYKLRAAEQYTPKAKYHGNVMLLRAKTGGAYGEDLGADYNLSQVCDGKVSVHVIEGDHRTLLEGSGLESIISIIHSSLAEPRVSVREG

[23] = inhibitors of intracellular T. cruzi replication, confirmation, NIH3T3 host cells, beta-gal luminescence (AID 2044); format: functional, cell-based;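 also: intracellular parasites grown in NIH/3T3 mouse fibroblasts as host cells; luminescent beta-galactosidase reporter signal from transgenic T. cruzi replicating inside host cells; inhibitors lower the luminescence signal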
[24] = biological target: Heat shock protein HSP 90-alpha (Homo sapiens, UniProt P07900); format: functional, organism-based
[25] = biological target: T4, Microphthalmia-associated transcription factor (Homo sapiens, UniProt O75030); assay: TRPM1 promoter luciferase signal decrease, dose response, MITF inhibitor project, cell-based, SK-MEL-5, cherry-picked, set 3 (AID 493073); format: functional
T4 sequence (O75030 whole entry): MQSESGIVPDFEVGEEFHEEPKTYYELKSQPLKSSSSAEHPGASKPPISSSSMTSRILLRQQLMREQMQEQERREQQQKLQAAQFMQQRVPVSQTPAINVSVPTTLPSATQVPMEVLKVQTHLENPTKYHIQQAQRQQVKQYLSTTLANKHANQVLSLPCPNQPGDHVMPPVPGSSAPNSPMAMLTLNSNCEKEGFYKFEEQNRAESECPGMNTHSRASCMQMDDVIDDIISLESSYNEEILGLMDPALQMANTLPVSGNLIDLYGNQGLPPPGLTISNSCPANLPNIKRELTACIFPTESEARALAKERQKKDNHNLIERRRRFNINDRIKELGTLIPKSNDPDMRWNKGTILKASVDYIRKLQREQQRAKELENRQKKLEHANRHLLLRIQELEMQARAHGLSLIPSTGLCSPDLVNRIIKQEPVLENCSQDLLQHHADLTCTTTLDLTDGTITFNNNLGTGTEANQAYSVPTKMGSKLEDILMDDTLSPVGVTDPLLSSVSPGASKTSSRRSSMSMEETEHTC

Voltage-dependent T-type calcium channel subunit alpha-1H, sequence (O95180 whole entry): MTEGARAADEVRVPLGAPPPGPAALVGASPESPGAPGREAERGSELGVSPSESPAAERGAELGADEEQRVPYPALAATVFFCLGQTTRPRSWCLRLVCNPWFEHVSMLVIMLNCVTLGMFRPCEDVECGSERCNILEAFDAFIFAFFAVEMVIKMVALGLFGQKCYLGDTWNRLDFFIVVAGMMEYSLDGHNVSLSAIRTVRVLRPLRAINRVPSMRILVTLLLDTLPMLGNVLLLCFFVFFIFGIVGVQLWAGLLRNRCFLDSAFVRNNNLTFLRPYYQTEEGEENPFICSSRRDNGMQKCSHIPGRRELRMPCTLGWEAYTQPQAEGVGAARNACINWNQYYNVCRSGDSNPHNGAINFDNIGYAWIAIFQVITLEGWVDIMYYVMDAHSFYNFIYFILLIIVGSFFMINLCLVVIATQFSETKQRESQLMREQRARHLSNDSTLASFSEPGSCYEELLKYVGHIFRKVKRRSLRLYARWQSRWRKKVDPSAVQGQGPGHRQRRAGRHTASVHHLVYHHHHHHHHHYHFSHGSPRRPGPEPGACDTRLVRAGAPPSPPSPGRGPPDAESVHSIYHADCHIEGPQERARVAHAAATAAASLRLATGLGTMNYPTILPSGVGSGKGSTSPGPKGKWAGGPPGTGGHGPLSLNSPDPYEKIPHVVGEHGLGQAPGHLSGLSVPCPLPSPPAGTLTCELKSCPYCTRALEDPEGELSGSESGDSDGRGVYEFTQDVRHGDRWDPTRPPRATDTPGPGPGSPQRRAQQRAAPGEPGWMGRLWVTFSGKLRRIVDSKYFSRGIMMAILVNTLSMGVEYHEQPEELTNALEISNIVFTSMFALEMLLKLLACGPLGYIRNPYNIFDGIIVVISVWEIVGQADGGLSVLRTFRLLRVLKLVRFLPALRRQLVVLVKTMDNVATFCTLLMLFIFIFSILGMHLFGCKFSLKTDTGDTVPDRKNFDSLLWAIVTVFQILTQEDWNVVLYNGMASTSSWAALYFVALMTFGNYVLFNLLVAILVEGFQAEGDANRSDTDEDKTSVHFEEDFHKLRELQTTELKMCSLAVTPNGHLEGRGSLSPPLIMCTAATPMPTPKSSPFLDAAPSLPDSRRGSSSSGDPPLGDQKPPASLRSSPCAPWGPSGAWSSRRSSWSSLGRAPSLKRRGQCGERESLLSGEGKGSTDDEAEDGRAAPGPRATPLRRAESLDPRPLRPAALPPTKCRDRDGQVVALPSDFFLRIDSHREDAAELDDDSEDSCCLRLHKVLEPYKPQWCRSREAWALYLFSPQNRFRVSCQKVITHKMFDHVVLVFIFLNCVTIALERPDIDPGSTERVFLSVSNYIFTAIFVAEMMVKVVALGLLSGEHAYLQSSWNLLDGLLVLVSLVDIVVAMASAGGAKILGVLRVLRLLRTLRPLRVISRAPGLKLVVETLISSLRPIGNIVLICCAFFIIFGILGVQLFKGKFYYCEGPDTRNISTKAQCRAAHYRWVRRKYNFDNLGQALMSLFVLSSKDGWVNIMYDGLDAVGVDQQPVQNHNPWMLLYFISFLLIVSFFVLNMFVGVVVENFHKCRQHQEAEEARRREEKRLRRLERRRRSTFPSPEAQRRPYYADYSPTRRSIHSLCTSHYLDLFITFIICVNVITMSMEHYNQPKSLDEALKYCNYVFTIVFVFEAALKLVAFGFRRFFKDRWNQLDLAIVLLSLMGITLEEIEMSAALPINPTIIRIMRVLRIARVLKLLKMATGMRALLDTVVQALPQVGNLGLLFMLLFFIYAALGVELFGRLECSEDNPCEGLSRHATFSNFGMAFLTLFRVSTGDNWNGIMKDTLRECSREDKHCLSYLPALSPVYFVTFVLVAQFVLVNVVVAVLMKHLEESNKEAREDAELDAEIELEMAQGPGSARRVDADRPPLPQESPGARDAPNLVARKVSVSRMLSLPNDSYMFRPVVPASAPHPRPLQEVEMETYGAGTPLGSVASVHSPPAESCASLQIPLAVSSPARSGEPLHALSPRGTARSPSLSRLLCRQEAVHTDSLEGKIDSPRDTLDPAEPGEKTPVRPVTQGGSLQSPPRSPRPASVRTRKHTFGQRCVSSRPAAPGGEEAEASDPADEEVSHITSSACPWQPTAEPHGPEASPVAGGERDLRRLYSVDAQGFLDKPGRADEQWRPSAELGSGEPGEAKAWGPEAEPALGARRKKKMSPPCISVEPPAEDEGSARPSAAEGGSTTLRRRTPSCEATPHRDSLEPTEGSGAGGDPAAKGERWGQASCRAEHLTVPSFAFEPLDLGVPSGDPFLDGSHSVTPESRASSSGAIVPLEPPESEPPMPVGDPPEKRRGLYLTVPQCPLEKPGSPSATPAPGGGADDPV

SMILES: Cc1nc2c(-c3ccc(F)cc3)c(C)nn2c(C)c1CCC(=O)N1CCN(c2ccc(F)cc2)CC1
- EC50 [1]: 5.21 µM (active)

SMILES: COc1ccc(-n2c(C)cc(/C=C/c3nc(O)c([N+](=O)[O-])c(O)n3)c2C)cc1
- AC50 [2]: 18.8 µM (active)

SMILES: CCSc1nc2ccccc2n1CCOc1ccccc1
- EC50 [1]: 18.2 µM (active)

SMILES: CC(NC(=O)CCC(=O)NC(C)C1COc2ccccc2O1)C1COc2ccccc2O1 (stereo unspecified)
- EC50 [1]: 4.07 µM (active)

SMILES: O=C(Nc1ccc(S(=O)(=O)NC2=NCCCCC2)cc1)c1ccc(C(F)(F)F)cc1
- IC50 [3]: 11.8 µM (active)

SMILES: [O-][n+]1c2ccccc2[n+]([O-])c2cc(O)ccc21
- EC50 [4]: 17.3 µM (active)
- AC50 [2]: 6.89 µM (active)
- EC50 [5]: > 150 µM (not active)
- EC50 [6]: 7.97 µM (active)

SMILES: Cc1ccc(C(CC(=O)NCc2ccco2)c2ccc(OC(C)C)cc2)cc1 (stereo unspecified)
- EC50 [1]: 15.9 µM (active)

SMILES: Cc1ccc(-c2nnc(SCC(C)C)n2C)cc1
- EC50 [7]: 88.6 µM (active)
- EC50 [8]: 10.1 µM (active)
- EC50 [9]: 11.5 µM (active)

SMILES: Cc1ccc(S(=O)(=O)N2CCCc3nc(-c4ccc(F)cc4)ccc32)cc1
- AC50 [10]: > 52 µM (inactive)

SMILES: Cc1cc(Sc2nc(N)ncc2[N+](=O)[O-])ncn1
- EC50 [11]: 4.19 µM (inconclusive)
- EC50 [12]: 0.746 µM (active)

SMILES: COc1ccc(-c2noc(CCC(=O)N3CCN(c4cc(C)ccc4C)CC3)n2)cc1
- EC50 [1]: 3.63 µM (active)

SMILES: O=C(Nc1cc([N+](=O)[O-])ccc1O)c1ccc2c(c1)C(=O)N(Cc1ccco1)C2=O
- AC50 [2]: 18.5 µM (active)

SMILES: COc1ccc(Cl)cc1N=C(N)Nc1nc(O)cc(CSc2ccc(C)cc2)n1
- AC50 [13]: 21.5 µM (active)
- AC50 [14]: > 70 µM (inactive)
- AC50 [15]: 1.82 µM (active)

SMILES: O=C(COC(=O)c1ccc([N+](=O)[O-])o1)Nc1ncc(Cl)cc1Cl
- AC50 [2]: 28.3 µM (active)

SMILES: CC(=O)c1ccc(Oc2ccc(C(=O)c3ccc(C)c(C)c3)cc2[N+](=O)[O-])cc1
- EC50 [16]: > 150 µM (not active)
- EC50 [17]: 26.4 µM (active)
- EC50 [18]: > 150 µM (not active)
- EC50 [19]: > 150 µM (inconclusive)

SMILES: O=C(Nc1cccc(NC(=O)c2ccc(-c3ccc(Br)cc3)o2)c1)c1ccccc1
- EC50 [1]: 19.1 µM (active)

SMILES: O=C(Nc1cccc(C(=O)N2CCCCC2)c1)c1ccccc1Br
- IC50 [3]: 16.8 µM (active)

SMILES: O=S(=O)(c1ccc(-c2csc(-c3cccnc3)n2)cc1)N1CCCCC1
- CC50 [20]: 40.1 µM (active)
- EC50 [21]: > 30 µM (not active)
- IC50 [22]: 3.65 µM (active)
- EC50 [23]: 1.89 µM (active)

SMILES: Cc1ccc(C(=O)Cn2c(-c3ccccc3)noc2=O)cc1
- EC50 [7]: 12.4 µM (active)
- EC50 [8]: 15 µM (active)
- EC50 [9]: 13.1 µM (active)

SMILES: CC1CCC(NC(=O)N(CCCl)N=O)CC1 (stereo unspecified) [SEMUSTINE]
- EC50 [7]: 24 µM (active)
- EC50 [8]: 16.2 µM (active)
- EC50 [9]: 5.98 µM (active)

SMILES: CCC(NCCc1ccccc1)=C1C(=O)N(C)C(=O)N(C)C1=O
- IC50 [3]: 13.8 µM (active)

SMILES: CCCCC/C=C\C/C=C\C/C=C\CCCCC(=O)O [GAMOLENIC ACID]
- AC50 [2]: 0.505 µM (active)

SMILES: O=C(C=Cc1cccc(O)c1)c1ccccc1O
- AC50 [24]: 2.81 µM (active)

SMILES: CN1CCC(=NNC(=O)C(=O)Nc2ccc(F)cc2)CC1
- EC50 [7]: 23.6 µM (active)
- EC50 [8]: 15 µM (active)
- EC50 [9]: 14.5 µM (active)

SMILES: O=C(NCc1ccco1)c1cc2c(s1)CCCCC2
- EC50 [7]: 41.9 µM (active)
- EC50 [8]: > 120 µM (not active)
- EC50 [9]: 34 µM (active)

SMILES: O=C(c1ccc([N+](=O)[O-])s1)N1CCN(c2ccccn2)CC1
- AC50 [25]: 12.2 µM (active)

SMILES: O=C(O)CSc1nc2sc3c(c2c(=O)n1Cc1ccccc1)CCCCC3
- EC50 [7]: 15.6 µM (active)
- EC50 [8]: 16.4 µM (active)
- EC50 [9]: > 60 µM (not active)

SMILES: CC(CCc1ccccc1)NC(=O)c1ccc(Br)cc1 (stereo unspecified)
- AC50 [24]: 2.6 µM (active)

SMILES: Cc1cc2c(cc(C(=O)N3CCC(C(=O)NC4CCCC4)CC3)n2Cc2c(F)cccc2Cl)o1
- AC50 [13]: 10 µM (active)
- AC50 [14]: 49.4 µM (active)
- AC50 [15]: 4.81 µM (active)

SMILES: CC(C)OC(=O)c1cccc(-c2ccc(C=O)o2)c1
- IC50 [3]: 14.5 µM (active)

SMILES: CCN(Cc1ccncc1)C(=O)c1cc(COc2ccc(F)cc2Cl)on1
- IC50 [3]: 13.2 µM (active)

SMILES: O=C(OCC(=O)N1CCCC1=O)c1nc(Cl)c(Cl)c(Cl)c1Cl
- EC50 [7]: > 120 µM (not active)
- EC50 [8]: > 120 µM (not active)
- EC50 [9]: 14.4 µM (active)

SMILES: Cc1cc(-c2ccccc2)n(-c2ccc(C(=O)N3CCN(c4ncccn4)CC3)cc2)n1
- IC50 [3]: 8.32 µM (active)
